Results on three molecules are retold here after patent publication US20040162467A1, “Non-invasive transudate extraction” (priority 2001, published 2004).

A short description of data set [1]: Trial of FIG. 1 device: blood levels versus ultrasound-extracted transudate levels. An excerpt: The device of shown in FIG. 1 has been trialed with four individuals. The device was assembled as set out above and was linked to a testosterone and ethanol detectors comprising a HPLC system and Electrochemical detector and a mass spectroscopy system. […] In turn, each subject placed their forearm on the device. The ultrasound generator was set to produce continuous pulsing, collimating ultrasonic energy at 1 MHz and 0.5 W/cm^2. The surface of delivery at the test site was approximately 5 cm^2. Collections were made from the skin surface of the forearm over a period of one minute. Blood samples were drawn simultaneously and analysed for comparison to the ultrasound samples.

Data set [2] in a line: Concentrations in transdermal exudate collected by different formats from sheep, versus serum. How it is done: (§1) Sodium lauryl sulfate (40%) and either a commercial ultrasound conductive gel (Aquasonic, Parker Lab., NJ 07004, USA) or a 10% ethanol gel (the two gels were alternated in use) are employed. These gels are designated SLS-UG and SLS-EG respectively herein. Collected SLS-UG and SLS-EG are assayed as for blood. Saliva was divided into two samples. The first sample is stored at −20° C. and assayed as for blood. The second sample is assayed at the time of experimentation using the apparatus and immunosensors described above.
Ten of these animals were used to develop the transdermal exudate collection technique. These 10 animals were penned as above, and a catheter inserted into the jugular vein using known techniques in the art. A mixture of sodium lauryl sulfate and either SLS-UG or SLS-EG was positioned onto the shaved area on the back of each animal. […] At the end of the hour, the remaining mix on the back was collected. The entire procedure was repeated three times. This mix was subject to assay (see below) for hormones and glucose content.
On the following day, one of the two gel mixes were rubbed on and, after 10 min, ultrasound (20 kHz, 10 W/cm^2, pulsed 5 s on/5 s off using an ITO Physiotherapy and rehabilitation unit, Tokyo 176-8605, Japan) applied for 1 min directly onto the mix. Ten minutes later, the mix was again collected and measured. This was then repeated with 2 min of the ultrasound application, and on a following day, the entire procedure repeated using the alternative gel mix on the shaved patch on the animal. Times greater than 2 min were not attempted due to potential risk of skin damage. Blood samples were collected at the time of ultrasound application and again at the time when the gel mix was also collected. The entire ultrasound procedure was then repeated on subsequent days with the addition of an application of a 9V electric field either side of the ultrasound head (in contact with skin).
On a separate day, in a further repeat of the above procedure; the collecting head (50) was positioned onto the ultrasound device. The ultrasound device was modified to ensure good coupling for use with the collecting head and delivery of needed parameters to the skin. The output of the device was reset to achieve the same energy and pulse delivery to the skin's surface as when the collecting head was not present, and the ultrasound device had been placed directly in contact with the gels (as described above). Three fluid flow rates into the collection chamber of the head were compared: 150, 300 and 600 μl/min. The effluent fluid was then assayed. On a final day, this was then repeated with the immunosensors positioned in the exit line from the chamber, with immunosensor measurement of the hormones made as has been described above.

A short description of data set [3]: Flow rate effect on analyte extraction (electrosonophoresis exudate versus serum). Format: in vivo. As to conditions: for Sonified off membrane*: membrane sonicated in water bath. On the procedure: Using the methods above for transudate and serum extraction, an experiment was conducted to determine the effect of flow rates through the head on testosterone recovery. Table 5 sets out the results of the experiment.
In a series of experiments (15 measures per flow rate) flow rates were compared for collection of testosterone in exudate from electrosonophoresis compared to that concurrently measured in serum of the subjects.

A short description of data set [4]: Serum, transdermal and saliva samples from sheep before, during and after exercise. Conditions: for Saliva: 20-min saliva lag; for Exudate: transdermal. On the procedure:
as §1
(§2) Student t tests, ANOVA or Wilcoxon test for paired samples are made as appropriate. Statistical significance is taken at P≦0.05 level. For analysis across the exercise stress, data is grouped into pre, during and post exercise values as actual sample times relative to the exercise for transdermal and blood obtained values. For pre, during and post exercise grouping of saliva samples, a 20-min lag was allowed relative to blood and transdermal values in sheep and a 30-min lag in human subjects.
In the remaining 10 sheep, experimentation took place on three separate days, each 3 days apart. On days of experimentation, animals were penned as above and the jugular vein of the animal was catheterised. Animals were left to rest for 50 min and then a single ultrasound application applied for 1 min as above. […] A series of electrosonophoresis collections were made concurrently with blood collection from the jugular vein, every 5 min for a further 1 h. Saliva samples were collected on every second blood sample (i.e. every 10 min). At completion of this time, a human shepherd, intermittently for 30 min, then ran the animals around a paddock. During this 30 min, each animal was briefly restrained manually and sampled on all three parameters every 10 min (i.e. three samples repeated three times). At the end of this period, animals were repenned and rested for 10 min, and a further saliva collection was made. Following this saliva collection for a further 1-h period, collection as above, prior to exercise, was repeated. In this manner for each animal, in each session, 27 blood and transdermal samples and 16 saliva samples were collected.

Data set [5] can be described thus: Serum, transdermal and saliva samples from human subjects before, during and after exercise. Conditions: for Saliva: 30-min saliva lag. On the procedure: as §1, §2
Ten human volunteers (males aged 19-23, body weights 85-103 kg) were seated at 09:30 h. During the experiment, they were held at a room temperature of 20-22° C. An initial 1 min burst of ultrasound, as for the sheep (above), was made on the volar surface of the forearm, following application of SLS-EG mix. Ten minutes later, transdermal (electrosonophoresis) collection began from this site on this forearm, simultaneous to a venepuncture blood collection being made from the other. A saliva collection was then made, followed by a second, third and fourth saliva collection 20, 30 and 40 min after the blood sample. These measurements were repeated three times over 3 h (i.e. a total of three blood and transdermal samples and 12 saliva samples). In between each sampling series, subjects were allowed to walk around, eat lightly and drink water. Following this collection, the five volunteers exercised at moderate intensities, for 40 min (heart rates maintained in the range of 130-160 bpm) on a rowing machine, stopping briefly at 10, 20 and 30 min to give blood, transdermal and saliva samples. The subjects gave another set of samples at 40 min upon completion of rowing, then warmed down lightly with stretching exercises for a further 10 min and gave a further saliva sample at the end of this time. Two more saliva samples were collected at 60 and 70 min after exercise started. At the end of this time, sampling was repeated as above, prior to exercise, for a further 3 h. The entire procedure was repeated twice a week for 3 weeks (a total of six times). The distance rowed (m) represented the total work rate during the exercise.

Data set [6] is described as follows: Patients recovering in intensive care: blood versus ultrasound (US) levels. It counts as in vivo, human. As to conditions: one value per sample.
The nature of data set [7]: Salivary cortisol during familiarization period. Conditions: sheep. Format: in vivo. How it is done: Twenty sheep (Romney cross ewes, 36-44 kg live weights) were farmed together as a flock for 14 days prior to experimentation. On each of these days, they were rounded up, penned, a patch on their backs (approximately 5 cm in diameter) shaved and SLS-UG or SLS-EG applied.
Two minutes later the electrosonophoresis device was placed briefly on this patch (not turned on). At the end of 1 h of penning saliva was collected using a plastic suction bulb positioned manually into the mouth of the sheep. In this manner the sheep were familiarized to the experimental procedure.

The nature of data set [8]: Procalcitonin/TNF alpha and IL 6 (measure of bacterial sepsis): serum versus transdermal. Format: in vivo.
Where [9] appears, read: sheep, SLS + 10% E + US 1 min + 9 V.
Where [10] appears, read: sheep, SLS + 10% E + US 1 min + 9 V + Collection Head.

Values joined by “and” are separate entries in the source; they are usually repeats but may differ in a detail not shown here. Equal entries are not always repeated.

`C[C@]12CC[C@H]3[C@@H](CCC4=CC(=O)CC[C@@]43C)[C@@H]1CC[C@@H]2O` [Testosterone, testosterone]: the “Blood level 1#” value in data set [1] (day 1, 30 min following 1 hour training (aerobic) and oral 10% ethanol, one value per subject (1-4)) was 3 ng/mL and 7 ng/mL and 9 ng/mL and 4 ng/mL. In addition, the “Ultrasound level 1#” value in data set [1] (day 1, 30 min following 1 hour training and oral 10% ethanol, forearm, 1 MHz, 0.5 W/cm^2, 1 min, one value per subject) is 2 ng/ml (2×) and 4 ng/ml and 7 ng/ml. Also, in data set [1] (repeat on day 3, forearm, 1 MHz, 0.5 W/cm^2, 1 min, one value per subject), the “Ultrasound level 2*” value is 4 ng/ml (2×) and 6 ng/ml and 3 ng/ml. In data set [1] (repeat on day 3, one value per subject), the “Blood level 2*” value is 5 ng/mL and 10 ng/mL and 8 ng/mL and 6 ng/mL. Besides, the Serum in data set [2] (sheep, SLS + 10% E) came out at 0.9 ± 0.4 ng/mL; in data set [2] (sheep, SLS + 10% E + US 1 min), 0.9 ± 0.3 ng/mL; in data set [2] (setting [9]), 0.7 ± 0.6 ng/mL; in data set [2] (setting [10]), 0.8 ± 0.6 ng/mL; in data set [2] (sheep, SLS + UG), 1.1 ± 0.6 ng/mL. Further, the Exudate in data set [2] (sheep, SLS + 10% E + US 1 min) was determined as 0.02 ± 0.005 ng/mL; in data set [2] (setting [9]), 0.05 ± 0.02 ng/mL; in data set [2] (setting [10]) it was 0.11 ± 0.06 ng/mL. Further, the “Relative recovery (exudate vs serum)” value in data set [2] (sheep, SLS + 10% E + US 1 min) is on record as “(2%)”; in data set [2] (setting [9]), “(7%)”; in data set [2] (setting [10]), “(14%)”. For the same molecule, in data set [2] (sheep, gel mix with addition of ultrasound application), the “Recovery as % of serum levels” value came to 2%. For the same molecule, the Collected in exudate was in the range of 0.05 to 0.09 ng/mL in data set [3] (flow rate 50 μl/min); 0.15 to 0.20 ng/mL in data set [3] (flow rate 100 μl/min); 0.2 to 0.3 ng/mL in data set [3] (flow rate 150 μl/min); 0.21 to 0.30 ng/mL in data set [3] (flow rate 200 μl/min); 0.12 to 0.17 ng/mL in data set [3] (flow rate 300 μl/min). Moreover, the “Serum level at same time” value in data set [3] (flow rate 50 μl/min) lay within 1.9 to 2.5 ng/mL; in data set [3] (flow rate 100 μl/min), 2.0 to 2.4 ng/mL; in data set [3] (flow rate 150 μl/min), 1.9 to 2.6 ng/mL; in data set [3] (flow rate 200 μl/min) it was 2.0 to 3.01 ng/mL; in data set [3] (flow rate 300 μl/min), 1.9 to 2.8 ng/mL. Moreover, the “Sonified off membrane*” value in data set [3] (flow rate 50 μl/min) is 0.1 to 0.2 ng/mL; in data set [3] (flow rate 100 μl/min), 0.05 to 0.07 ng/mL; in data set [3] (flow rate 150 μl/min) it was 0.01 to 0.02 ng/mL; in data set [3] (flow rate 200 μl/min), 0.01 to 0.02 ng/mL; in data set [3] (flow rate 300 μl/min) it was 0.08 to 0.12 ng/mL.

Take `C[C@]12CCC(=O)C=C1CC[C@@H]1[C@@H]2[C@@H](O)C[C@@]2(C)[C@H]1CC[C@]2(O)C(=O)CO` [Cortisol, cortisol]: the “Recovery as % of serum levels” value in data set [2] (in vivo) was 5%. The Serum in data set [4] (10 min Exercise) worked out at 19.6 ± 5.1 ng/L; in data set [4] (20 min Exercise) it was 27.8 ± 4.6 ng/L; in data set [4] (30 min Exercise), 39.3 ± 7.4 ng/L; in data set [4] (Postexercise), 18.3 ± 4.9 ng/L; in data set [4] (Preexercise), 11.9 ± 4.7 ng/L; in data set [5] (0 min Exercise) it was 29.5 ± 9.2 ng/L. Also, the Serum in data set [5] (10 min Exercise) was determined as 7.08 ± 11.5 ng/L; in data set [5] (20 min Exercise), 91.3 ± 19.7 ng/L; in data set [5] (30 min Exercise), 115.7 ± 15.8 ng/L; in data set [5] (40 min Exercise), 109.4 ± 13.1 ng/L; in data set [5] (Postexercise), 49.6 ± 11.3 ng/L; in data set [5] (Preexercise) it was 22.7 ± 8.1 ng/L. Besides, the Saliva in data set [4] (10 min Exercise) is 1.51 ± 0.97 ng/L; in data set [4] (20 min Exercise), 2.35 ± 2.19 ng/L; in data set [4] (30 min Exercise) it was 2.44 ± 1.76 ng/L; in data set [4] (Postexercise), 1.34 ± 1.81 ng/L; in data set [4] (Preexercise) it was 1.07 ± 1.03 ng/L; in data set [5] (0 min Exercise), 2.79 ± 1.13 ng/L. The Saliva in data set [5] (10 min Exercise) was determined as 8.01 ± 2.86 ng/L; in data set [5] (20 min Exercise), 8.75 ± 4.31 ng/L; in data set [5] (30 min Exercise) it was 10.04 ± 3.11 ng/L; in data set [5] (40 min Exercise), 9.19 ± 3.76 ng/L; in data set [5] (Postexercise), 4.02 ± 1.95 ng/L; in data set [5] (Preexercise) it was 2.25 ± 1.04 ng/L. Besides, the Exudate turned out to be 2.91 ± 0.83 ng/L in data set [4] (10 min Exercise), 3.92 ± 1.01 ng/L in data set [4] (20 min Exercise), 2.71 ± 0.55 ng/L in data set [4] (Postexercise) and 1.71 ± 0.85 ng/L in data set [4] (Preexercise). Besides, the “Cortisol US” value in data set [6] was 32.1 ng/mL and 37.4 ng/mL and 30.5 ng/mL and 39.7 ng/mL and 29.2 ng/mL and 36.4 ng/mL and 31.3 ng/mL and 45.9 ng/mL. For the same molecule, the figures for the Salivary value in data set [7] (Day 14) and in data set [7] (first day) were 1.1 ± 0.9 ng/mL and 6.4 ± 1.2 ng/mL, respectively.

B1: Procalcitonin: measure of bacterial sepsis (protein, UniProt P01258 26-141, looked up)
pro-form: APFRSALESSPADPATLSEDEARLLLAALVQDYVQMKASELEQEQEREGSSLDSPRSKRCGNLSTCMLGTYTQDFNKFHTFPQTAIGVGAPGKKRDMSSDLERDHRPHVSMPQNAN
modifications: pro-form
notes: measure of bacterial sepsis
As for B1, in data set [8] (subject number 20), the Serum lay in the range of 0.5 to 15 ng/mL and the Transdermal lay within 0.04 to 1.7 ng/mL. Also, in data set [8] (subject number 30), the Serum was 0.1 to 0.5 ng/mL and the Transdermal fell in the range of 0.02 to 0.05 ng/mL.
